According to patent US20050095663A1, “Process for screening fungitoxic compounds” (priority 2002, published 2005):
Like-named read-outs stand apart in the source and are kept apart here.

Assays:
[1] = system: Candida albicans (American Type Culture Collection strain 10231); assay: Control of Candida albicans infection in mice; assay type: in vivo; conditions: for % Survival: mortality over 10 days
Method: Compound 1 (6-(4-chlorophenyl)-2-(2′-pentynyl)pyridazinone, described as compound 109 in European Patent Publication No. EP 478 195 A1) in 5% dimethylsulfoxide (DMSO) in saline solution was administered intraperitoneally 1 h before and at 4, 24, 48 and 72 h after intravenous inoculation with Candida albicans (American Type Culture Collection strain 10231). Ten mice were used for each treatment. Mortality was recorded over a period of 10 days.

[2] = system: Saccharomyces cerevisiae (strain X2180-1A); assay: Effect of fatty acids on fungitoxicity (growth inhibition, absorbance at 700 nm); assay type: cell-based; conditions: 22 h
Method: (§1) Fifty ml of YPG culture medium (10 g yeast extract, 20 g peptone, and 20 g glucose per liter of water) in a 250 ml Erlenmeyer flask was inoculated with Saccharomyces cereviae (strain X2180-1A) to give an absorbance at 700 nm of 0.02. This culture was incubated for 18 h at 30° C. with shaking at 225 rpm. The cells were harvested by centrifugation, washed once with SD medium (6.7 g Bacto-yeast nitrogen base and 20 g glucose per liter of water), and suspended in SD medium to give an Absorbance at 700 nm of 0.04. Aliquots (5 ml) of cell suspension were distributed in 20 ml capacity glass vials. Treatments containing compound 1 or cerulenin received 25 μl of a solution of compound in dimethylsulfoxide (DMSO) at 240 ppm or 160 ppm, respectively. Control treatments without compound 1 or cerulenin received 25 ul DMSO. Treatments containing a fatty acid received 25 μl of a 2 mM solution of the fatty acid in a 1% solution of Triton X-100 providing a concentration of 10 μM. Treatments without fatty acid received 25 ul of 1% Triton X-100. All treatments were carried out in duplicate. Vials were incubated for 22 h at 30° C. with shaking at 225 rpm. Growth of the cells was then estimated by diluting the cells in each treatment 3-fold with SD medium and measuring the asorbance at 700 nm. The results in Table 3 show inhibition of growth expressed as a percentage of growth in DMSO controls containing Triton X-100 but lacking Compound 1, cerulenin or fatty acid.

[3] = molecular target: T1, Yeast Δ-9 fatty acid desaturase (Saccharomyces cerevisiae, UniProt P21147); assay: Yeast microsomal Δ-9 fatty acid desaturase assay (14C-palmitoyl-CoA to palmitoleic acid); assay type: biochemical
T1 construct: the resulting microsomal pellet suspended in 10 ml of ice-cold 0.1 M potassium phosphate buffer; endogenous in cells; host or cells: Saccharomyces cerevisiae ATCC strain 12341, microsomal fraction
Method: The following method was used to prepare the microsomal Δ-9 fatty acid desaturase from yeast. Two 250 ml flasks containing 100 ml each of glucose-yeast extract medium (0.4% yeast extract and 2% glucose) were inoculated with Saccharomyces cerevisiae strain 12341 obtained from the American Type Culture Collection, and grown for 48 h at 30° C. with shaking at 250 rpm. The cells were used to inoculate a 4 liter flask containing 3.6 liters of medium. The cells were grown at 30° C. with gentle shaking at 90 rpm for 24 h. […]
Delta-9 Fatty acid desaturase assays were performed by measuring the desaturation of ^14C-palmitoyl-CoA to palmitoleic acid using 0.5 ml reaction mixtures containing 0.1 M potassium phosphate buffer, pH 7.2, 1 mM NADH and 26 μM ^14C-palmitoyl-CoA (0.028 μCi per assay) in 13×100 mm glass culture tubes. […] The upper cyclohexane layer was removed and 100 μI analyzed by HPLC on a Supelcosil LC-18 column (25×4.6 mm) with methanol-water-phosphoric acid (90:9.9:0.1, by volume) as the mobile phase at a flow rate of 1 ml/min. A Packard A120 RAM detector was used to determine the amounts of radioactivity in the palmitic and palmitoleic acid fractions. The percent inhibition of desaturation was determined by comparing the production of palmitoleic acid in assays containing compound 1 with production in assays containing DMSO alone. […]

[4] = molecular target: T2, Rat liver Δ-9 fatty acid desaturase (Rattus norvegicus, UniProt P07308); assay: Rat liver microsomal Δ-9 fatty acid desaturase assay (14C-palmitoyl-CoA to palmitoleic acid); assay type: biochemical
T2 construct: The upper gelatinous layer is the microsomal fraction; from tissue; host or cells: liver of Sprague-Dawley rats (starved, then fed a fat-free diet), microsomal fraction
T2 sequence (P07308 1-358): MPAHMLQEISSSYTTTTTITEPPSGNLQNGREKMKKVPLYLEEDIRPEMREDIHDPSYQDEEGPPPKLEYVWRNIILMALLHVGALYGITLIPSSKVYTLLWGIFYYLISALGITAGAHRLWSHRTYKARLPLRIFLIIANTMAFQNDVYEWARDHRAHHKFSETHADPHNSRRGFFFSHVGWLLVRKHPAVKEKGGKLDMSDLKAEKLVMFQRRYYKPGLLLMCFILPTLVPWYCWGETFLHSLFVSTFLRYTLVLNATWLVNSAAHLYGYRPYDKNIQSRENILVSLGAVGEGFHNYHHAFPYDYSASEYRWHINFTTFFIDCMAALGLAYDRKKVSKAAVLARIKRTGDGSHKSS
Method: The following method was used to prepare the microsomal Δ-9 fatty acid desaturase from rat liver. Sprague-Dawley rats weighing between 120 and 180 g were fed with Purina laboratory chow, starved for 48 h, then fed with a “Fat-Free” test diet (Nutritional Biochemical Corporation) for 20 h. Livers were removed and placed in cold […] Tris-acetate buffer, pH 8.1, containing 0.25 M sucrose and 1 mM EDTA. The tissue was washed twice with 10 volumes of cold buffer, blotted dry and weighed. The tissue was minced and homogenized in 5 ml of buffer per gram of tissue using a glass homogenizer with a loose fitting Teflon pestle. […]
Delta-9 Fatty acid desaturase assays were performed by measuring the desaturation of ^14C-palmitoyl-CoA to palmitoleic acid using 0.5 ml reaction mixtures containing 0.1 M potassium phosphate buffer, pH 7.2, 1 mM NADH and 26 μM ^14C-palmitoyl-CoA (0.028 μCi per assay) in 13×100 mm glass culture tubes. […] The upper cyclohexane layer was removed and 100 μI analyzed by HPLC on a Supelcosil LC-18 column (25×4.6 mm) with methanol-water-phosphoric acid (90:9.9:0.1, by volume) as the mobile phase at a flow rate of 1 ml/min. A Packard A120 RAM detector was used to determine the amounts of radioactivity in the palmitic and palmitoleic acid fractions. […] The concentration of compound 1 which inhibited production of palmitoleic acid by 50% was determined from dose-response curves.

S. cerevisiae [5] = assay: Growth inhibition of S. cerevisiae by compound 1; assay type: cell-based; conditions: Saccharomyces cerevisiae, 18 h
Method: as §1
(§2) S. cerevisiae was grown in SD medium as 5 ml aliquots of cell suspension in 20 ml capacity glass vials as described in example 3 in the absence (controls) and presence of compound 1. Compound 1 was added as 25 μl of solution in DMSO, and controls received 25 ul DMSO alone. After growth for 18 h at 30° C. with shaking at 225 rpm, inhibition of growth by compound 1 was determined as described in example 3, and the fatty acid composition was determined as follows. The cells were centrifuged in 20 ml borosilicate glass culture tubes at 2000 rpm. The supernatant was decanted, and the cells were re-suspended in 10 ml of water and re-centrifuged at 2000 rpm. The supernatant was decanted, and the cells were saponified by heating at 80° C. for 1 hour in 2.5 ml of 10% potassium hydroxide solution in 90% methanol/10% water. The non-saponifiable lipids were removed by extracting the basic solution with 2×3 ml of cyclohexane. The basic solution was then acidified to pH 2 with 6N hydrochloric acid, and the acidic solution was again extracted with 2×3 ml of cyclohexane. These extracts were analyzed directly by capillary gas chromatography using an HP5890 gas chromatograph equipped with a Restek Stabilwax DB capillary column (30m×0.53 mm i.d.×0.25 μm film thickness) and a flame ionization detector. Analyses were run at 225° C. isothermally, and compared to a sample free fatty acid mixture prepared from authentic standards purchased from Sigma.

S. cerevisiae [6] = assay: Fatty acid composition of S. cerevisiae after treatment (capillary gas chromatography); assay type: cell-based, Saccharomyces cerevisiae; conditions: 18 h
Method: as §2

[7] = microsomal preparation, 26 μM 14C-palmitoyl-CoA, 30° C., 5 min

T1 sequence (P21147 whole entry, stated change not applied): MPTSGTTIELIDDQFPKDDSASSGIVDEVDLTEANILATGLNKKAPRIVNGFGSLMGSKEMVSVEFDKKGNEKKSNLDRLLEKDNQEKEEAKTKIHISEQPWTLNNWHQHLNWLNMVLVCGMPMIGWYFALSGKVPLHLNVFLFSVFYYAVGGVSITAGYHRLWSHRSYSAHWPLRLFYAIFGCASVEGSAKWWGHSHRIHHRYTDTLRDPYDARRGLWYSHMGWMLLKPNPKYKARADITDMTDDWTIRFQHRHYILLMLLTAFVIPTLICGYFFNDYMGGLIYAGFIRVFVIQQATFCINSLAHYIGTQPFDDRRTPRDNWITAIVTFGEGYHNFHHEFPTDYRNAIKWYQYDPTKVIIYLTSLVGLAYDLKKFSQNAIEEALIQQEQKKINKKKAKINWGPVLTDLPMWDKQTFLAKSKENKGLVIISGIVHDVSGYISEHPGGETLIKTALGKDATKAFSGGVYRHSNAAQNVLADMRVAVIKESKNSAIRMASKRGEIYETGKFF

With `C[C@@H]1[C@H](O)[C@@H](C)/C=C/C=C/C=C/C=C/C=C/C=C/C=C/[C@H](O[C@@H]2O[C@H](C)[C@@H](O)[C@H](N)[C@@H]2O)C[C@@H]2O[C@](O)(C[C@@H](O)C[C@@H](O)[C@H](O)CC[C@@H](O)C[C@@H](O)CC(=O)O[C@H]1C)C[C@H](O)[C@H]2C(=O)O` [Amphotericin B, reference compound] the “% Survival” value ([1]; 10 mg/kg) was 100%.
Work on `C/C=C/C/C=C/CCC(=O)[C@H]1O[C@H]1C(N)=O` [Cerulenin, cerulenin, reference compound] yielded an inhibition at 0.8 ppm ([2]; read-out: % Inhibition of growth, 0.8 ppm, no fatty acid, 22 h) of 35.6%, an inhibition at 0.8 ppm ([2]; read-out: % Inhibition of growth, 0.8 ppm, oleic acid 10 μM, 22 h) of 3.3% and an inhibition at 0.8 ppm ([2]; read-out: % Inhibition of growth, 0.8 ppm, palmitic acid 10 μM, 22 h) of 15.2%. The inhibition at 0.8 ppm ([2]; read-out: % Inhibition of growth, 0.8 ppm, palmitoleic acid 10 μM, 22 h) was 4.5% and the inhibition at 0.8 ppm ([2]; read-out: % Inhibition of growth, 0.8 ppm, pentadecanoic acid 10 μM, 22 h) was 20.3%.
`CCC#CCn1nc(-c2ccc(Cl)cc2)ccc1=O` [Compound 1, 6-(4-chlorophenyl)-2-(2′-pentynyl)pyridazinone] was tested, and the “Inhibition of Candida albicans infection in mice (in words)” value [1] was “effective inhibitor”, the “% Survival” value ([1]; 10 mg/kg) was 20% and the “% Survival” value ([1]; 30 mg/kg intraperitoneally 1 h before and 4, 24, 48, 72 h after i.v. inoculation) was 40%. The “% Survival” value ([1]; 100 mg/kg intraperitoneally 1 h before and 4, 24, 48, 72 h after i.v. inoculation) was 50%, the “Inhibition of fungal Δ-9 fatty acid desaturase (in words)” value [3] was “potent inhibitor” and the “Yeast desaturase EC50” value [3, 7] was 0.055 ppm. For the same compound, the “Inhibition of mammalian Δ-9 fatty acid desaturase (in words)” value [4] was “does not inhibit”, the “Rat liver desaturase EC50” value [4, 7] was greater than 100 ppm and the inhibition at 1.2 ppm ([2]; no fatty acid) was 76.9%. It also gave an inhibition at 1.2 ppm ([2]; oleic acid 10 μM) of 18.7%, an inhibition at 1.2 ppm ([2]; palmitic acid 10 μM) of 95.5% and an inhibition at 1.2 ppm ([2]; palmitoleic acid 10 μM) of 21.8%. For the same compound, the inhibition at 1.2 ppm ([2]; pentadecanoic acid 10 μM) was 96.7%, the inhibition at 0.0625 µg/mL (S. cerevisiae [5]; 0.0625 μg/ml) was 10.1% and the inhibition at 0.125 µg/mL (S. cerevisiae [5]; 0.125 μg/ml) was 14.3%. The inhibition at 0.25 µg/mL (S. cerevisiae [5]; 0.25 μg/ml) was 19.1%, the inhibition at 0.5 µg/mL (S. cerevisiae [5]; 0.5 μg/ml) was 38.7% and the inhibition at 1 µg/mL (S. cerevisiae [5]; 1 μg/ml) was 54.4%. For the same compound, the inhibition at 2 µg/mL (S. cerevisiae [5]; 2 μg/ml) was 66.4%, the “oleic acid per milligram dry weight of cells” value (S. cerevisiae [6]; 0.0625 μg/ml) was 8.5 µg/mg and the “palmitic acid per milligram dry weight of cells” value (S. cerevisiae [6]; 0.0625 μg/ml) was 7.1 µg/mg. For the same compound, the “palmitoleic acid per milligram dry weight of cells” value (S. cerevisiae [6]; 0.0625 μg/ml) was 14.2 µg/mg, the “stearic acid per milligram dry weight of cells” value (S. cerevisiae [6]; 0.0625 μg/ml) was 2.8 µg/mg and the “oleic acid per milligram dry weight of cells” value (S. cerevisiae [6]; 0.125 μg/ml) was 4.3 µg/mg. For the same compound, the “palmitic acid per milligram dry weight of cells” value (S. cerevisiae [6]; 0.125 μg/ml) was 6.5 µg/mg, the “palmitoleic acid per milligram dry weight of cells” value (S. cerevisiae [6]; 0.125 μg/ml) was 14 µg/mg and the “stearic acid per milligram dry weight of cells” value (S. cerevisiae [6]; 0.125 μg/ml) was 3.1 µg/mg. For the same compound, the “oleic acid per milligram dry weight of cells” value (S. cerevisiae [6]; 0.25 μg/ml) was 2.7 µg/mg, the “palmitic acid per milligram dry weight of cells” value (S. cerevisiae [6]; 0.25 μg/ml) was 6 µg/mg and the “palmitoleic acid per milligram dry weight of cells” value (S. cerevisiae [6]; 0.25 μg/ml) was 3 µg/mg. For the same compound, the “stearic acid per milligram dry weight of cells” value (S. cerevisiae [6]; 0.25 μg/ml) was 3 µg/mg, the “oleic acid per milligram dry weight of cells” value (S. cerevisiae [6]; 0.5 μg/ml) was 1.1 µg/mg and the “palmitic acid per milligram dry weight of cells” value (S. cerevisiae [6]; 0.5 μg/ml) was 5.2 µg/mg. For the same compound, the “palmitoleic acid per milligram dry weight of cells” value (S. cerevisiae [6]; 0.5 μg/ml) was 1 µg/mg, the “stearic acid per milligram dry weight of cells” value (S. cerevisiae [6]; 0.5 μg/ml) was 4.7 µg/mg and the “oleic acid per milligram dry weight of cells” value (S. cerevisiae [6]; 1 μg/ml) was 1.2 µg/mg. The “palmitic acid per milligram dry weight of cells” value (S. cerevisiae [6]; 1 μg/ml) was 6.7 µg/mg, the “palmitoleic acid per milligram dry weight of cells” value (S. cerevisiae [6]; 1 μg/ml) was 0 µg/mg and the “stearic acid per milligram dry weight of cells” value (S. cerevisiae [6]; 1 μg/ml) was 5 µg/mg. For the same compound, the “oleic acid per milligram dry weight of cells” value (S. cerevisiae [6]; 2 μg/ml) was 0.5 µg/mg, the “palmitic acid per milligram dry weight of cells” value (S. cerevisiae [6]; 2 μg/ml) was 5 µg/mg and the “palmitoleic acid per milligram dry weight of cells” value (S. cerevisiae [6]; 2 μg/ml) was 0 µg/mg. The “stearic acid per milligram dry weight of cells” value (S. cerevisiae [6]; 2 μg/ml) was 4.2 µg/mg.
